From patent publication US8153641B2, “Compounds and methods for kinase modulation, and indications therefor” (Plexxikon Inc., priority 2008, dated 2012)

Columns and labels:
Assay type in all cases: biochemical
[1] = biological target: Fms (Homo sapiens, UniProt P07333); test: Kinase activity assay, Fms; details: read-out: activity toward kinase Fms, IC50
[2] = biological target: C-Raf (Homo sapiens, UniProt P04049); test: Kinase activity assay, C-Raf; details: read-out: activity toward kinase C-Raf, IC50
C-Raf, sequence (P04049 whole entry): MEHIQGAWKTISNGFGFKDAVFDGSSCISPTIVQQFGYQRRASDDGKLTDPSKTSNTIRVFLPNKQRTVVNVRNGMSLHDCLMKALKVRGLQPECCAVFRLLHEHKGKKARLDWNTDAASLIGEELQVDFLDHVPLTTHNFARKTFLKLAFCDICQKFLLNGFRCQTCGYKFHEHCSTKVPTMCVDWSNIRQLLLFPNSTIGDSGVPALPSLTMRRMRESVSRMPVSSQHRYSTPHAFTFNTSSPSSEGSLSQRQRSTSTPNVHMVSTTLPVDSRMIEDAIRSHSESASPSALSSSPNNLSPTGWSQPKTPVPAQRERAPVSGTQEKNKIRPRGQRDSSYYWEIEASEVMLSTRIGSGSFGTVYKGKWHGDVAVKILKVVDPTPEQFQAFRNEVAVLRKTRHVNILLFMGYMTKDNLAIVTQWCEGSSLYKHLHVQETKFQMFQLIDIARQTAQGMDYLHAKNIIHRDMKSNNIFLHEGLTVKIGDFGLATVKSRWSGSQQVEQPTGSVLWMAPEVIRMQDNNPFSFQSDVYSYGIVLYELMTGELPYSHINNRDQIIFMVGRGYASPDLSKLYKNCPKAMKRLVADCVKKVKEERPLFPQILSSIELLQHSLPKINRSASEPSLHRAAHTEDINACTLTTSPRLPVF

[3] = biological target: B-Raf V600E (Homo sapiens, UniProt P15056, V600E); test: Kinase activity assay, B-Raf V600E; details: read-out: activity toward kinase B-Raf V600E, IC50
B-Raf V600E, sequence (P15056 whole entry V600E): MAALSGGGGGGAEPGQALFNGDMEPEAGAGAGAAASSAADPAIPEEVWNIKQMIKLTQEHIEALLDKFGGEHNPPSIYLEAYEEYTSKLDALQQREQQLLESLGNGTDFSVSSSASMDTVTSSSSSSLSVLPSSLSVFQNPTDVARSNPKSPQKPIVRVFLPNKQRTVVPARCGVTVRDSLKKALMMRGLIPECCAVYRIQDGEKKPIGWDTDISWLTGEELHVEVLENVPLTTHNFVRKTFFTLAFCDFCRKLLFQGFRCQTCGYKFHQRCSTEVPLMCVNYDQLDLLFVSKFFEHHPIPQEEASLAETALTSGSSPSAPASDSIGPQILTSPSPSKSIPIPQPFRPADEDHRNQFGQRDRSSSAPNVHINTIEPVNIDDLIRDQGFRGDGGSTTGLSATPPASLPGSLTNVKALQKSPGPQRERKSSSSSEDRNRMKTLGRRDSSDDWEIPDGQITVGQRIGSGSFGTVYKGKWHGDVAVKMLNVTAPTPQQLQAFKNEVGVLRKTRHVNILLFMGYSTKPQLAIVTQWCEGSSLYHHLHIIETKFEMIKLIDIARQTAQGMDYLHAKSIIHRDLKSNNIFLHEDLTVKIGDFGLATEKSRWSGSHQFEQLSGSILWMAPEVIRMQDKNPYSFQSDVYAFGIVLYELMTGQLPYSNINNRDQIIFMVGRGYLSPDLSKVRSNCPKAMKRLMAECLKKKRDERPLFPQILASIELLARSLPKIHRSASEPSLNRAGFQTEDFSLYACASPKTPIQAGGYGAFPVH

[4] = biological target: B-Raf (Homo sapiens, UniProt P15056); test: Kinase activity assay, B-Raf; details: read-out: activity toward kinase B-Raf, IC50
B-Raf, sequence (P15056 whole entry): as the sequence (P15056 whole entry V600E) above, with E600V counted along it

Measured: IC50

Fms, sequence (P07333 20-972): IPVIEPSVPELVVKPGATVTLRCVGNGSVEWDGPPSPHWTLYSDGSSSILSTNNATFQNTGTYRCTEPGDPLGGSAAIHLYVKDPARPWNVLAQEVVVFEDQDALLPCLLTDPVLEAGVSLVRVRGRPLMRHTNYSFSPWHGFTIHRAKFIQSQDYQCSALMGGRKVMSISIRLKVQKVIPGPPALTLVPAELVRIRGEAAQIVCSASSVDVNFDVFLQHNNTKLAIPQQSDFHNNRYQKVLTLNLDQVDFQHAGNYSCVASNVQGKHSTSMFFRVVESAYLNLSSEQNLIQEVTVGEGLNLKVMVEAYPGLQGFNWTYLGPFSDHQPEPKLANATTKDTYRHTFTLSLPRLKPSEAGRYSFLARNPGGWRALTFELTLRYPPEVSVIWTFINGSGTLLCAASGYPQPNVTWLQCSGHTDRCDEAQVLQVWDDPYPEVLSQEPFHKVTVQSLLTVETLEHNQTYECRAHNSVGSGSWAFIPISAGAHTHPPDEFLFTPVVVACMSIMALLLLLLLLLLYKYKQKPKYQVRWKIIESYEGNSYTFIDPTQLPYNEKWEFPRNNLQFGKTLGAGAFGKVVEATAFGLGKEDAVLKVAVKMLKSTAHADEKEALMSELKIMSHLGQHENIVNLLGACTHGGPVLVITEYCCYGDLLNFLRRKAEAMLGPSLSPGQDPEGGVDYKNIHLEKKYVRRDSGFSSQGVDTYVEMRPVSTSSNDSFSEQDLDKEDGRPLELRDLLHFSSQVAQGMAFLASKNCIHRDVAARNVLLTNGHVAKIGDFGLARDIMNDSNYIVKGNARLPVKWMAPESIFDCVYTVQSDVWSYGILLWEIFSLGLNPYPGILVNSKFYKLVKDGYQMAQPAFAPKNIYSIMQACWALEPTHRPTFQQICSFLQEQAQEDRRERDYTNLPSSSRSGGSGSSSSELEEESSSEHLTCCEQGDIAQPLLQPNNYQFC

O=C(c1c(F)ccc(NS(=O)(=O)c2cccnc2)c1F)c1c[nH]c2ncncc12 [Compound P-0066, Pyridine-3-sulfonic acid [2,4-difluoro-3-(7H-pyrrolo[2,3-d]pyrimidine-5-carbonyl)-phenyl]-amide]
≤ 10 µM: all assays above
